Assay results published in article PMC4867239 (Journal of biotechnology, 2016).
Ends that are not written are not given here.

How the values were obtained:
[1] = Phase 1 SAD/MAD plasma PK in healthy volunteers; format: in vivo, Human; conditions: humans
[2] = Plasma PK in cynomolgus monkeys, 14 days of daily IV dosing; format: in vivo, Cynomolgus macaques; conditions: for AUC(0-t) / Cmax / MRT: cynomolgus monkey, plasma, iv
[3] = Quantitative whole body autoradiography with [14C]SGX94; format: in vivo, male CD-1 mice
[4] = Plasma PK in mice, 14 days of daily IV dosing; format: in vivo, Mouse (CD-1); conditions: for AUC(0-t) / Cmax / MRT / Tmax: CD-1, mouse, plasma, iv
S. aureus = experiment: microbe, parasite or virus in culture; conditions: Staphylococcus aureus, read-out: active at (MIC assay)

## RIVPA-NH2 [SGX94, dusquetide]
[1]
  PK half-life: very short (minutes)
[2]; female, 20 mg/kg
  AUC(0-t): 2410 ± 1230 ng·h/mL
  Cmax: 12400 ± 6410 ng/mL
  MRT: 6.6 min
[2]; female, 80 mg/kg
  AUC(0-t): 3360 ± 4710 ng·h/mL
  Cmax: 16900 ± 24800 ng/mL
  MRT: 55 min
[2]; female, 160 mg/kg
  AUC(0-t): 36300 ± 26400 ng·h/mL
  Cmax: 179000 ± 132000 ng/mL
  MRT: 6.6 min
[2]; male, 20 mg/kg
  AUC(0-t): 1330 ± 438 ng·h/mL
  Cmax: 6650 ± 2520 ng/mL
  MRT: 7.8 min
[2]; male, 80 mg/kg
  AUC(0-t): 19400 ± 6910 ng·h/mL
  Cmax: 85900 ± 25800 ng/mL
  MRT: 7.8 min
[2]; male, 160 mg/kg
  AUC(0-t): 46000 ± 9570 ng·h/mL
  Cmax: 206000 ± 33400 ng/mL
  MRT: 7.2 min
[2]; non-human primate
  PK half-life: very short (minutes)
[3]; 20 mg/kg [14C]SGX94 IV, by 5 min post-dose
  major analyte in blood: a metabolite of SGX94
[3]; QWBA, 20 mg/kg [14C]SGX94 IV bolus, male CD-1 mice
  penetration into CNS, bone, white adipose and eye lens: low penetration
[4]; female, 20 mg/kg
  AUC(0-t): 1700 ng·h/mL
  Cmax: 8080 ng/mL
  MRT: 2 min
[4]; female, 60 mg/kg
  AUC(0-t): 6520 ng·h/mL
  Cmax: 27100 ng/mL
  MRT: 6.5 min
[4]; female, 90 mg/kg
  AUC(0-t): 10400 ng·h/mL
  Cmax: 45800 ng/mL
  MRT: 1.8 min
[4]; male, 20 mg/kg
  AUC(0-t): 4500 ng·h/mL
  Cmax: 23000 ng/mL
  MRT: 2.3 min
  Tmax: 3 min
[4]; male, 60 mg/kg
  AUC(0-t): 9290 ng·h/mL
  Cmax: 41200 ng/mL
  MRT: 1.8 min
  Tmax: 3 min
[4]; male, 90 mg/kg
  AUC(0-t): 17400 ng·h/mL
  Cmax: 72200 ng/mL
  MRT: 1.6 min
  Tmax: 3 min
[4]; mouse
  PK half-life: very short (minutes)

## CC[C@H]1OC(=O)[C@H](C)[C@@H](O[C@H]2C[C@@](C)(OC)[C@@H](O)[C@H](C)O2)[C@H](C)[C@@H](O[C@@H]2O[C@H](C)C[C@H](N(C)C)[C@H]2O)[C@](C)(O)C[C@@H](C)C(=O)[C@H](C)[C@@H](O)[C@]1(C)O [erythromycin]
S. aureus
  MIC: < 3.12 µg/mL
